Data on 15 molecules can be found in publication PMC9003574 (ACS Pharmacology & Translational Science, 2022).

A word on the CC50: it is the concentration at which the toxic effect on the cells reaches its halfway point. In general, IC50 refers to the concentration needed to halve the response being measured. As usually defined, the viability is a read-out of living cells in per cent, often relative to untreated cells. Usually EC50 stands for the concentration needed to bring the measured effect to its halfway point.

For one data set, the system named is Vero E6-GFP cells. The data set is described as follows: in vitro. The class given is cell-based, African green monkey. The following applies: read-out: Vero E6-GFP CC50; cell viability, 2 μM CP100356.
The target of data set [1] is T1, SARS-CoV-2 nsp13 (Severe acute respiratory syndrome coronavirus 2, UniProt P0DTD1). The data set is described as follows: biochemical. The class given is biochemical. The following applies: for ATPase, percentage of control at the highest tested compound concentration: without BSA/TCEP.
Data set [2] deals with T1, SARS-CoV-2 nsp13. To be noted: for impact of DTT on inhibition of unwinding activity: presence or absence of 1 mM DTT.
Data set [3] addresses T1, SARS-CoV-2 nsp13. The data set is described as follows: biochemical.
Another data set in a line: in vitro. The data set is classed as cell-based, African green monkey. The following applies: African green monkey, with CP100356, 2 μM.
Another data set relates to SARS-CoV-2. The data set is described as follows: microbe, parasite or virus in culture. The class given is cell-based. To be noted: for EC50: Severe acute respiratory syndrome coronavirus 2, Vero, read-out: SARS-CoV-2 EC50.
Data set [4] has as its target T1, SARS-CoV-2 nsp13. The following applies: read-out: NTPase activity IC50; cited from earlier work.
Setting [5] is: ATPase IC50, without BSA/TCEP, no nucleic acid.
Where [6] appears, read: unwinding IC50, without BSA/TCEP.
[7] abbreviates: ATPase BSA-TCEP-polyrA IC50, BSA, TCEP and poly(A) ssRNA.
[8] abbreviates: unwinding BSA-TCEP IC50, 10 μg/mL BSA and 180 μM TCEP.

Like-named read-outs stand apart in the source and are kept apart here. A value given as a limit tells only on which side of the number the result lay.

In the case of `CC(C)C[C@H](NC(=O)OCc1ccccc1)C(=O)N[C@@H](CC1CCNC1=O)C(O)S(=O)(=O)O` (stereo partly shown) [GC376, reference compound], the CC50 in the data set on Vero E6-GFP cells is more than 100 µM.
Turning to `O=c1cc(-c2ccc(O)cc2)oc2cc(O[C@@H]3O[C@H](CO)[C@@H](O)[C@H](O)[C@H]3O)cc(O)c12` [apigenin-7-O-glucoside], the IC50 on SARS-CoV-2 nsp13 [1] (setting [5]) and against SARS-CoV-2 nsp13 [3] (setting [6]) was more than 30 µM throughout. Moreover, the “ATPase, percentage of control at the highest tested compound concentration” value (shortened to “ATPase, percentage of control”) at SARS-CoV-2 nsp13 [1] is given as 99%. Also, on SARS-CoV-2 nsp13 [2] (without BSA/TCEP), the “unwinding, percentage of control at the highest tested compound concentration” value (shortened to “unwinding, percentage of control”) is given as 100%.
In “in vitro”, `O=c1cc(-c2ccccc2)oc2cc(O)c(O)c(O)c12` [baicalein] gave a CC50 at 72 h of more than 100 µM and a viability at 72 h of 100%. For the same molecule, the “ATPase, percentage of control” value on SARS-CoV-2 nsp13 [1] is 94%. In the data set on SARS-CoV-2, the EC50 is more than 100 µM and the “SARS-CoV-2, percentage of control at the highest tested compound concentration” value (“SARS-CoV-2, percentage of control” below) is reported as >100 (100%).
For the molecule `COc1ccc2cc1Oc1ccc(cc1)C[C@H]1c3c(cc4c(c3Oc3cc5c(cc3OC)CCN(C)[C@@H]5C2)OCO4)CCN1C` [cepharanthine], the IC50 on SARS-CoV-2 nsp13 [4] was 400 µM.
As for `O=C1c2c(O)cc(O)cc2O[C@H](c2cc(O)c(O)c(O)c2)[C@H]1O` [dihydro-myricetin], the “ATPase, percentage of control” value at SARS-CoV-2 nsp13 [1] worked out at 100%.
For the molecule `COc1ccc(-c2cc(=O)c3c(O)cc(O)cc3o2)cc1O` [diosmetin], at SARS-CoV-2 nsp13 [1], the “ATPase, percentage of control” value is given as 92%. Also, in the data set on SARS-CoV-2, the EC50 was more than 100 µM and the “SARS-CoV-2, percentage of control” value is listed as >100 (100%).
Take `O=C(O)c1cc(O)c(O)c(O)c1` [gallic acid]: the IC50 at SARS-CoV-2 nsp13 [1] (setting [5]) and against SARS-CoV-2 nsp13 [3] (setting [6]) was more than 30 µM throughout. The “ATPase, percentage of control” value at SARS-CoV-2 nsp13 [1] is given as 92%. Moreover, the “unwinding, percentage of control” value at SARS-CoV-2 nsp13 [2] (without BSA/TCEP) was 89%.
In the data set “in vitro”, `O=c1c(O)c(-c2ccc(O)cc2)oc2cc(O)cc(O)c12` [kaempferol] came in with a CC50 at 72 h of more than 100 µM and a viability at 72 h of 100%. Also, the IC50 against SARS-CoV-2 nsp13 [1] (setting [7]) is more than 30 µM. Further, on SARS-CoV-2 nsp13 [1] (setting [5]), the IC50 is more than 30 µM. Moreover, the “ATPase, percentage of control” value on SARS-CoV-2 nsp13 [1] is listed as 83%. Besides, at SARS-CoV-2 nsp13 [2], the “impact of DTT on inhibition of unwinding activity” value was “equally active in the presence and absence of DTT”. Also, on SARS-CoV-2 nsp13 [2] (versus ATP), the “mode of inhibition of unwinding activity” value is listed as “noncompetitively versus ATP”. Moreover, on SARS-CoV-2 nsp13 [2] (without BSA/TCEP), the “unwinding IC50 range in words” value is “nanomolar range”. In addition, in the data set with SARS-CoV-2, the EC50 was more than 100 µM and the “SARS-CoV-2, percentage of control” value is >100 (100%). The molecule also gave a half-maximal inhibitory concentration (IC50) on SARS-CoV-2 nsp13 [3] (setting [8]) of 19 ± 2.1 µM.
As for `O=c1c(O)c(-c2cc(O)c(O)c(O)c2)oc2cc(O)cc(O)c12` [myricetin], in “in vitro”, the CC50 at 72 h is more than 100 µM and the viability at 72 h came to 100%. Moreover, the “ATPase, percentage of control” value on SARS-CoV-2 nsp13 [1] was found to be 87%. For the same molecule, the “impact of DTT on inhibition of unwinding activity” value at SARS-CoV-2 nsp13 [2] was “equally active in the presence and absence of DTT”. In the data set with SARS-CoV-2, the EC50 was more than 100 µM and the “SARS-CoV-2, percentage of control” value is >100 (100%).
Molecule `COc1cc(O)c2c(=O)c(-c3ccc(O)cc3)coc2c1` [prunetin] registered a cytotoxic concentration (CC50) at 72 h in the data set “in vitro” of more than 100 µM. This molecule gave a viability at 72 h in the data set “in vitro” of 100%. Also, the IC50 at SARS-CoV-2 nsp13 [1] (setting [7]) is more than 30 µM; against SARS-CoV-2 nsp13 [1] (setting [5]), more than 30 µM; on SARS-CoV-2 nsp13 [3] (setting [8]) it was more than 100 µM; at SARS-CoV-2 nsp13 [3] (setting [6]) it was 11.5 ± 1.7 µM. For the same molecule, the “ATPase, percentage of control” value at SARS-CoV-2 nsp13 [1] turned out to be 97%. Also, the EC50 in the data set on SARS-CoV-2 was more than 100 µM. The “SARS-CoV-2, percentage of control” value in the data set with SARS-CoV-2 is on record as >100 (100%).
As for `O=c1c(O)c(-c2ccc(O)c(O)c2)oc2cc(O)cc(O)c12` [quercetin], in the data set “in vitro”, the CC50 at 72 h was more than 100 µM and the viability at 72 h is 100%. In addition, the EC50 with SARS-CoV-2 was more than 100 µM.
`Oc1ccc(/C=C/c2cc(O)cc(O)c2)cc1` [resveratrol]: the IC50 against SARS-CoV-2 nsp13 [1] (setting [5]) and against SARS-CoV-2 nsp13 [3] (setting [6]) was more than 30 µM throughout. Besides, the “ATPase, percentage of control” value on SARS-CoV-2 nsp13 [1] is 98%. Also, the “unwinding, percentage of control” value on SARS-CoV-2 nsp13 [2] (without BSA/TCEP) is given as 64%.
On to `C[C@@H]1O[C@@H](OC[C@H]2O[C@@H](Oc3c(-c4ccc(O)c(O)c4)oc4cc(O)cc(O)c4c3=O)[C@H](O)[C@@H](O)[C@@H]2O)[C@H](O)[C@H](O)[C@H]1O` [rutin], for which the “ATPase, percentage of control” value at SARS-CoV-2 nsp13 [1] was determined as 96%. Besides, the “unwinding, percentage of control” value on SARS-CoV-2 nsp13 [2] (without BSA/TCEP) is given as 75%.
As for `COc1c(O)cc(O)c2c(=O)cc(-c3ccccc3)oc12` [wogonin], the IC50 against SARS-CoV-2 nsp13 [1] (setting [7]) is more than 30 µM; against SARS-CoV-2 nsp13 [1] (setting [5]), more than 30 µM; on SARS-CoV-2 nsp13 [3] (setting [8]) it was 74.9 ± 8.3 µM; against SARS-CoV-2 nsp13 [3] (setting [6]), 24.9 ± 5.5 µM. Besides, at SARS-CoV-2 nsp13 [1], the “ATPase, percentage of control” value was 95%.
For kaempferol-3-O-rutinoside, the “ATPase, percentage of control” value at SARS-CoV-2 nsp13 [1] was found to be 95%. Besides, on SARS-CoV-2 nsp13 [2] (without BSA/TCEP), the “unwinding, percentage of control” value was 71%.
